Measurements: PubChem BioAssay AID1963421 (Molecular Pharmacology Branch, DTP, NCI, 2024)

Tested on: 519858-162-T-J1-PDC complex spheroid growth, % test/control
Assay: Anticancer human tumor 519858-162-T-J1-PDC patient-derived colon adenocarcinoma cell line growth inhibition [Asc]
Conditions: for IC50: curve of first compound; for viability, T/C: stronger effect = lower value
Method in brief: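 Tumor cells were grown as multicellular spheroids with stromal HUVEC and mesenchymal stem cells and treated singly or in combination. Concentrations fell in half-log steps from the clinical Cmax, or from 10 microM where none was known.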
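Further: seven day drug exposure begun three days after spheroid seeding.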
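Wherever viability, T/C is given: 100% = DMSO vehicle wells and lower values mean less viable spheroid.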

Question: For `Cc1nc(N2CCC3(CC2)COC(C)C3N)c(CO)nc1Sc1ccnc(N)c1Cl` (centres undefined) + CCN1C(C(=O)NC23CCC(C(=O)O)(CC2)CC3)C(c2cccc(Cl)c2F)C2(C(=O)Nc3cc(Cl)ccc32)C12CCCCC2, which IC50 (second compound 0.00949 µM) is on record?
Answer: 0.578 µM

Question: What about the IC50 (second compound 0.03 µM) of the same molecule?
Answer: > 3 µM

Question: What about the IC50 (second compound 0.0949 µM) of the same molecule?
Answer: > 3 µM

Question: And the IC50 (second compound 0.3 µM)?
Answer: > 3 µM

Question: And the IC50 (second compound 0.949 µM)?
Answer: > 3 µM

Question: And the IC50 (second compound 3 µM)?
Answer: > 3 µM

Question: What about the viability, T/C (second compound 0.00949 µM, first compound 0.00949 µM) of the same molecule?
Answer: 87%

Question: What about the viability, T/C (second compound 0.00949 µM, first compound 0.03 µM) of the same molecule?
Answer: 91.7%

Question: And the viability, T/C (second compound 0.00949 µM, first compound 0.0949 µM)?
Answer: 111%

Question: What about the viability, T/C (second compound 0.00949 µM, first compound 0.3 µM) of the same molecule?
Answer: 57.3%

Question: What about the viability, T/C (second compound 0.00949 µM, first compound 0.949 µM) of the same molecule?
Answer: 43.6%

Question: What about the viability, T/C (second compound 0.00949 µM, first compound 3 µM) of the same molecule?
Answer: 45.3%

Question: What about the viability, T/C (second compound 0.03 µM, first compound 0.00949 µM) of the same molecule?
Answer: 85.3%

Question: And the viability, T/C (second compound 0.03 µM, first compound 0.03 µM)?
Answer: 67%

Question: What about the viability, T/C (second compound 0.03 µM, first compound 0.0949 µM) of the same molecule?
Answer: 101%

Question: And the viability, T/C (second compound 0.03 µM, first compound 0.3 µM)?
Answer: 85.6%

Question: What about the viability, T/C (second compound 0.03 µM, first compound 0.949 µM) of the same molecule?
Answer: 96%

Question: What about the viability, T/C (second compound 0.03 µM, first compound 3 µM) of the same molecule?
Answer: 63.3%

Question: What about the viability, T/C (second compound 0.0949 µM, first compound 0.00949 µM) of the same molecule?
Answer: 63.2%

Question: What about the viability, T/C (second compound 0.0949 µM, first compound 0.03 µM) of the same molecule?
Answer: 110%

Question: And the viability, T/C (second compound 0.0949 µM, first compound 0.0949 µM)?
Answer: 70.5%

Question: What about the viability, T/C (second compound 0.0949 µM, first compound 0.3 µM) of the same molecule?
Answer: 66.6%

Question: And the viability, T/C (second compound 0.0949 µM, first compound 0.949 µM)?
Answer: 73.7%

Question: What about the viability, T/C (second compound 0.0949 µM, first compound 3 µM) of the same molecule?
Answer: 57.5%

Question: And the viability, T/C (second compound 0.3 µM, first compound 0.00949 µM)?
Answer: 119%

Question: And the viability, T/C (second compound 0.3 µM, first compound 0.03 µM)?
Answer: 71%

Question: And the viability, T/C (second compound 0.3 µM, first compound 0.0949 µM)?
Answer: 54.5%

Question: And the viability, T/C (second compound 0.3 µM, first compound 0.3 µM)?
Answer: 80.6%

Question: And the viability, T/C (second compound 0.3 µM, first compound 0.949 µM)?
Answer: 47.6%

Question: What about the viability, T/C (second compound 0.3 µM, first compound 3 µM) of the same molecule?
Answer: 52.5%

Question: And the viability, T/C (second compound 0.949 µM, first compound 0.00949 µM)?
Answer: 67.6%

Question: And the viability, T/C (second compound 0.949 µM, first compound 0.03 µM)?
Answer: 66.8%

Question: What about the viability, T/C (second compound 0.949 µM, first compound 0.0949 µM) of the same molecule?
Answer: 83.1%

Question: And the viability, T/C (second compound 0.949 µM, first compound 0.3 µM)?
Answer: 47.4%

Question: And the viability, T/C (second compound 0.949 µM, first compound 0.949 µM)?
Answer: 73.5%

Question: And the viability, T/C (second compound 0.949 µM, first compound 3 µM)?
Answer: 59.2%

Question: What about the viability, T/C (second compound 3 µM, first compound 0.00949 µM) of the same molecule?
Answer: 69.5%

Question: And the viability, T/C (second compound 3 µM, first compound 0.03 µM)?
Answer: 92.5%

Question: And the viability, T/C (second compound 3 µM, first compound 0.0949 µM)?
Answer: 77.2%

Question: And the viability, T/C (second compound 3 µM, first compound 0.3 µM)?
Answer: 73.5%

Question: What about the viability, T/C (second compound 3 µM, first compound 0.949 µM) of the same molecule?
Answer: 67%

Question: What about the viability, T/C (second compound 3 µM, first compound 3 µM) of the same molecule?
Answer: 72.5%

Question: Which IC50 (second compound 0.00316 µM) does the source give for `O=C(c1cc(Cc2n[nH]c(=O)c3ccccc23)ccc1F)N1CCN(C(=O)C2CC2)CC1` + CNC(C)C(=O)NC1CN(S(=O)(=O)c2cccc(S(=O)(=O)N3CCC4CCC(C(=O)NC(c5ccccc5)c5ccccc5)N4C(=O)C(NC(=O)C(C)NC)C3)c2)CCC2CCC(C(=O)NC(c3ccccc3)c3ccccc3)N2C1=O here?
Answer: > 10 µM

Question: And the IC50 (second compound 0.01 µM)?
Answer: > 10 µM

Question: And the IC50 (second compound 0.0316 µM)?
Answer: > 10 µM

Question: What about the IC50 (second compound 0.1 µM) of the same molecule?
Answer: > 10 µM

Question: And the IC50 (second compound 0.316 µM)?
Answer: > 10 µM

Question: And the IC50 (second compound 1 µM)?
Answer: > 10 µM

Question: What about the viability, T/C (second compound 0.00316 µM, first compound 0.0316 µM) of the same molecule?
Answer: 61.5%

Question: What about the viability, T/C (second compound 0.00316 µM, first compound 0.1 µM) of the same molecule?
Answer: 57.1%

Question: What about the viability, T/C (second compound 0.00316 µM, first compound 0.316 µM) of the same molecule?
Answer: 55%

Question: What about the viability, T/C (second compound 0.00316 µM, first compound 1 µM) of the same molecule?
Answer: 66.5%

Question: And the viability, T/C (second compound 0.00316 µM, first compound 3.16 µM)?
Answer: 72.8%

Question: And the viability, T/C (second compound 0.00316 µM, first compound 10 µM)?
Answer: 65.1%

Question: What about the viability, T/C (second compound 0.01 µM, first compound 0.0316 µM) of the same molecule?
Answer: 127%

Question: And the viability, T/C (second compound 0.01 µM, first compound 0.1 µM)?
Answer: 98.8%

Question: And the viability, T/C (second compound 0.01 µM, first compound 0.316 µM)?
Answer: 103%

Question: And the viability, T/C (second compound 0.01 µM, first compound 1 µM)?
Answer: 89.4%

Question: What about the viability, T/C (second compound 0.01 µM, first compound 3.16 µM) of the same molecule?
Answer: 114%

Question: What about the viability, T/C (second compound 0.01 µM, first compound 10 µM) of the same molecule?
Answer: 87%

Question: And the viability, T/C (second compound 0.0316 µM, first compound 0.0316 µM)?
Answer: 96.9%

Question: And the viability, T/C (second compound 0.0316 µM, first compound 0.1 µM)?
Answer: 73.4%

Question: And the viability, T/C (second compound 0.0316 µM, first compound 0.316 µM)?
Answer: 91.3%

Question: And the viability, T/C (second compound 0.0316 µM, first compound 1 µM)?
Answer: 91.1%

Question: And the viability, T/C (second compound 0.0316 µM, first compound 3.16 µM)?
Answer: 84.5%

Question: What about the viability, T/C (second compound 0.0316 µM, first compound 10 µM) of the same molecule?
Answer: 88.3%

Question: What about the viability, T/C (second compound 0.1 µM, first compound 0.0316 µM) of the same molecule?
Answer: 97.9%

Question: What about the viability, T/C (second compound 0.1 µM, first compound 0.1 µM) of the same molecule?
Answer: 83.2%

Question: What about the viability, T/C (second compound 0.1 µM, first compound 0.316 µM) of the same molecule?
Answer: 89.7%

Question: And the viability, T/C (second compound 0.1 µM, first compound 1 µM)?
Answer: 84.9%

Question: What about the viability, T/C (second compound 0.1 µM, first compound 3.16 µM) of the same molecule?
Answer: 94.4%

Question: And the viability, T/C (second compound 0.1 µM, first compound 10 µM)?
Answer: 76.4%

Question: And the viability, T/C (second compound 0.316 µM, first compound 0.0316 µM)?
Answer: 68.4%

Question: And the viability, T/C (second compound 0.316 µM, first compound 0.1 µM)?
Answer: 86.6%

Question: What about the viability, T/C (second compound 0.316 µM, first compound 0.316 µM) of the same molecule?
Answer: 117%

Question: What about the viability, T/C (second compound 0.316 µM, first compound 1 µM) of the same molecule?
Answer: 97.7%

Question: And the viability, T/C (second compound 0.316 µM, first compound 3.16 µM)?
Answer: 100%

Question: What about the viability, T/C (second compound 0.316 µM, first compound 10 µM) of the same molecule?
Answer: 95%

Question: What about the viability, T/C (second compound 1 µM, first compound 0.0316 µM) of the same molecule?
Answer: 80.7%

Question: And the viability, T/C (second compound 1 µM, first compound 0.1 µM)?
Answer: 84.9%

Question: And the viability, T/C (second compound 1 µM, first compound 0.316 µM)?
Answer: 106%

Question: What about the viability, T/C (second compound 1 µM, first compound 1 µM) of the same molecule?
Answer: 99.3%

Question: What about the viability, T/C (second compound 1 µM, first compound 3.16 µM) of the same molecule?
Answer: 78.1%

Question: What about the viability, T/C (second compound 1 µM, first compound 10 µM) of the same molecule?
Answer: 95.3%
